Patent US6444850B1, “Fungicidial compounds having a fluorovinyloxphyenyl moiety and process for the preparation thereof” (priority 1997, dated 2002)

Key:
[1] = tested on: Pyricularia oryzae Carvara KA301; format: in vivo; settings: for C. V. (%) Fungicidal Activities against RCB at 10 ppm / C. V. (%) Fungicidal Activities against RCB at 10 ppm (TABLE 6): sprayed on Nakdong rice plant, control value from lesion area; for C. V. (%) RCB: 50 ppm, control value, rice blast
[2] = tested on: Botrytis cinerae; experiment: Fungicidal activity against cucumber gray mold rot (CGM) disease; format: in vivo; settings: 50 ppm, control value
Procedure: Botrytis cinerae, which was isolated from cucumber infected thereby, was inoculated on a PDA agar medium and cultured under a 12L/12D cycle at 25° C. for 15 days to form spore. The spores were scraped, filtered through a gauze and then suspended in potato dextrose liquid medium at a concentration of 1×10^6 spore/ml. The spore suspension was sprayed on a cucumber plant having one leaf. The cucumber plant was held in a humidified room at 20° C. for 3 days. L.A. on a leaf was measured to calculate an C.V.

[3] = tested on: Phytophthora infestans; format: in vivo; settings: 50 ppm; control value, tomato late blight
[4] = tested on: Puccinia recondita; experiment: Fungicidal activity against wheat leaf rust (WLR) disease; format: in vivo; settings: for C. V. (%), Fungicidal Activities against WLB at 10 ppm: Table 8 (Test Example 5); for C. V. (%) WLR: 50 ppm, control value, wheat leaf rust
[5] = tested on: Erysiphae graminis; experiment: Fungicidal activity against barley powdery mildew (BPM) disease; format: in vivo; settings: for C. V. (%), Fungicidal activities against TLB at 10 ppm: Table 9 (Test Example 6); for C. V. (%) BPM: 50 ppm, control value, barley powdery mildew
Procedure: Erysiphae graminis was subcultured on a wheat plant in a laboratory. 15 g of barley seeds was sowed in a pot (diameter 6.5 cm) and cultured in a greenhouse for 7 days to obtain a barley plant having only a primary leaf. The barley plant was inoculated with spores by shaking thereover another plant infected by BPM. The inoculated barley plant was cultured in an incubator maintained at a temperature of 22 to 24° C. and a relative humidity of 50% for 7 days to induce BPM. L.A. on the leaf was measured to calculate an C.V.

[6] = tested on: Rhizoctonia solani AG-1; experiment: Fungicidal activity against rice sheath blight (RSB) disease; settings: 50 ppm, control value
Procedure: 50 ml of the resulting solution was sprayed on leaves of a host plant. The plant was kept at room temperature for 24 hours to let the solvent evaporate, and then, a pathogenic fungus was inoculated thereonto. The plant was held in a humidity chamber for 24 hours, transferred to an plant growth room kept at 20 to 27° C. and a relative humidity of 60 to 80% and kept to induce disease. Subsequently, the lesion area(L.A.) attacked by the pathogenic fungus was measured according to a method of Cho(Cho, K. Y., Search Report by Korea Research Institute of Chemical Technology (1989))”. This procedure was repeated twice for each test. 10% Acetone solution containing 250 ppm of Tween-20 was used as a control.
The fungicidal activity of the compound of the present invention is repressed by a control value (C.V.) calculated as; [formula]
Rhizoctonia solani AG-1 was cultured on a PDA medium(potato 200 g, dextrose 20 g, agar 20 g and distilled water 1 l) for 3 days and the agar disc (diameter 0.6 cm) was inoculated and cultured on sterilized wheat bran medium in a 1 l bottle at 26 to 28° C. for 7 days. A mycelial mass was ground using a homogenizer, inoculated uniformly on soil of a pot wherein a Nakdong rice plant having 2 or 3 leaves and an height of 5 cm grew, and kept in humidity polyvinyl chamber for 5 days to induce RSB. L.A. on a leaf sheath was measured to calculate an C.V.

Compound | C. V. (%) Fungicidal Activities against RCB at 10 ppm [1] | C. V. (%) Fungicidal Activities against RCB at 10 ppm (TABLE 6) [1] | C. V. (%) RCB [1] | C. V. (%) CGM [2] | C. V. (%) TLB [3] | C. V. (%), Fungicidal Activities against WLB at 10 ppm [4] | C. V. (%) WLR [4] | C. V. (%), Fungicidal activities against TLB at 10 ppm [5] | C. V. (%) BPM [5] | C. V. (%) RSB [6]
COC=C(C(=O)OC)c1ccccc1COc1cccc(OC(F)=Cc2ccc(OC)cc2)c1 [Compound 29] | 92% | 92% | 93% | 28% | 56% | 99% | 100% | 90% | 99% | 90%
COC=C(C(=O)OC)c1ccccc1COc1cccc(OC(F)=Cc2ccccc2C)c1 [Compound 5] | 94% | 94% | 95% | 0% | 50% | 95% | 100% | 94% | 99% | 95%
CON=C(C(=O)OC)c1ccccc1COc1cccc(OC(F)=Cc2ccc(Oc3ccccc3)cc2)c1 [Compound 33] |  |  | 20% | 20% | 10% |  | 83% |  | 94% | 5%
CNC(=O)C(=COC)c1ccccc1COc1cccc(OC(F)=Cc2cccc(C)c2)c1 [Compound 7] |  |  | 26% | 33% | 46% |  | 0% |  | 0% | 10%
CO/C=C(/C(=O)OC)c1ccccc1COc1cccc(OC(F)=C(c2ccccc2)C(F)(F)F)c1 [Compound 45, methyl (2E)-3-methoxy-2-{2′-{3′-(2′″-fluoro-1′″-trifluoromethylstyryl)-2′″-oxy}phenoxymethyl}phenyl-2-propenoate] | 90% | 90% | 90% | 0% | 0% | 100% | 100% | 100% | 100% | 94%
CNC(=O)C(=COC)c1ccccc1COc1cccc(OC(F)=C(c2cccc(C)c2)C(F)(F)F)c1 [Compound 50] |  |  | 0% | 5% | 33% |  | 0% |  | 0% | 25%
CON=C(C(=O)OC)c1ccccc1COc1cccc(OC(F)=C(c2ccccc2)C(F)(F)F)c1 [Compound 47] |  |  | 96% | 26% | 64% |  | 86% | 98% | 98% | 90%
CCOc1ccc(C(=C(F)Oc2cccc(OCc3ccccc3C(=NOC)C(=O)NC)c2)C(F)(F)F)cc1 [Compound 80] | 95% | 95% | 100% | 0% | 0% | 100% | 100% | 100% | 100% | 0%
CON=C(C(=O)OC)c1ccccc1COc1cccc(OC(F)=C(c2cccc(Cl)c2)C(F)(F)F)c1 [Compound 86] |  |  | 90% | 27% | 22% | 96% | 100% | 95% | 100% | 90%
COC(=O)C(=CSC)c1ccccc1COc1cccc(OC(F)=Cc2cc(C)cc(C)c2)c1 [Compound 20] |  |  | 73% | 0% | 46% |  | 83% |  | 93% | 35%
COC(=O)C(=CSC)c1ccccc1COc1cccc(OC(F)=Cc2ccc(C)c(C)c2)c1 [Compound 16] |  |  | 53% | 0% | 33% |  | 83% |  | 97% | 60%
CON=C(C(=O)OC)c1ccccc1COc1cccc(OC(F)=C(c2ccc(C)cc2)C(F)(F)F)c1 [Compound 55] | 94% | 94% | 100% | 0% | 85% |  | 100% | 97% | 100% | 30%
CO/C=C(/C(=O)OC)c1ccccc1COc1cccc(OC(F)=Cc2ccccc2)c1 [Compound 1, methyl (2E)-3-methoxy-2-{2′-{3″-(2′″-fluorostyryl)-2′″-oxy}phenoxymethyl}phenyl-2-propenoate] |  |  | 97% | 62% | 70% | 96% | 100% | 100% | 100% | 95%
CNC(=O)/C(=C/OC)c1ccccc1COc1cccc(OC(F)=C(c2cc(C)cc(C)c2)C(F)(F)F)c1 [Compound 68] |  |  | 0% | 0% | 22% |  | 56% |  | 0% | 0%
COC=C(C(=O)OC)c1ccccc1COc1cccc(OC(F)=C(c2cccc(Cl)c2)C(F)(F)F)c1 [Compound 84] | 95% | 95% | 90% | 16% | 81% | 97% | 100% | 100% | 100% | 25%
CNC(=O)C(=NOC)c1ccccc1COc1cccc(OC(F)=C(c2ccc(OC)cc2)C(F)(F)F)c1 [Compound 77] | 96% | 96% | 99% | 11% | 82% | 100% | 100% | 100% | 100% | 60%
COC=C(C(=O)OC)c1ccccc1COc1cccc(OC(F)=C(c2ccc3c(c2)OCO3)C(F)(F)F)c1 [Compound 81] |  |  | 86% | 0% | 33% | 100% | 100% | 100% | 100% | 65%
CNC(=O)C(=NOC)c1ccccc1COc1cccc(OC(F)=C(c2cccc(F)c2)C(F)(F)F)c1 [Compound 95] | 100% | 100% | 100% | 0% | 0% | 100% | 100% | 100% | 100% | 72%
CCc1ccc(C(=C(F)Oc2cccc(OCc3ccccc3C(=COC)C(=O)NC)c2)C(F)(F)F)cc1 [Compound 59] |  |  | 12% | 0% | 33% |  | 0% |  | 0% | 33%
CON=C(C(=O)OC)c1ccccc1COc1cccc(OC(F)=Cc2ccc(Cl)cc2)c1 [Compound 39] |  |  | 100% | 15% | 80% |  | 86% | 95% | 96% | 90%
CO/C=C(/C(=O)OC)c1ccccc1COc1cccc(OC(F)=C(c2cc(C)cc(C)c2)C(F)(F)F)c1 [Compound 67] |  |  | 80% | 16% | 25% |  | 100% | 100% | 100% | 50%
COC=C(C(=O)OC)c1ccccc1COc1cccc(OC(F)=Cc2ccc(F)cc2)c1 [Compound 36] | 94% | 94% | 100% | 0% | 66% | 100% | 100% | 100% | 99% | 95%
